Test results as given in patent US10010584B2, “Treatment of depressive disorders” (Blanchette Rockefeller Neuroscience Institute, priority 2004, dated 2018).
Read-outs that look alike come from different tables or passages of the source.

Assays:
Adult Wistar rats = experiment: Open-space-swimming test; type: in vivo, rat; settings: for mobility (distance moved) / immobility compared with control group: 10 mg/kg×3 per day, 23, 2 and 1 h before trial sessions, saline control; for percentages of decreases in the distance moved on the third day (using the decrease of control groups as 100%): 10 mg/kg×3 per day i.p., n=8
Experimental: Adult Wistar rats (180-200 g) were housed in a temperature-controlled (20-24° C.) room for at least a week prior to experimentation, allowed free access to food and water, and kept on a 12-h light/dark cycle. They were randomly assigned to different groups (eight each) and were moved to the test room in their home cages at least 1 h before trials. Rats were individually placed into a round pool with a diameter of 152 cm and height of 60 cm and was filled with 40 cm H2O (22±1° C.). The room and pool are part of the started set-up used for spatial water maze task. (Sun et al. (2002) J. Pharmacol. Exp. Ther. 300: 408-416). The tests for different drug treatment and control groups were in a counterbalanced order. No escape was available in these trials. Rats were free to swim (or not to swim) for 15 min and then removed and returned to their home cage after drying. Observers were obscured from sight of the rats during the trials, but were able to observe the animals' behaviors on a video screen monitor during trials. The same procedure (15 min session per day) was repeated 24 h later and continued for 3 additional days. Drugs were dissolved in a saline solution for test groups and saline alone was used in the control groups. Imipramine (10 mg/kg×3 day, i.p.), iproniazid (10 mg/kg×3 per day, i.p.), mianserin (10 mg/kg×3 per day, i.p.), alaproclate (10 mg/kg×3 per day), or saline were administered between the swimming trial sessions at 23, 2, and 1 h before the second, third, and fourth trial sessions, respectively. The rationale for the three doses before test trials is the more consistent predictive effects than those of a single dose (Porsolt et al. (1977) Nature 266: 730-730-732; Porsolt et al. (1978) Eur J. Pharmacol. 47: 379-391; Poncelet et al, (1986) Psychopharmacology 90: 139-141). The swimming/drifting path was recorded with a video-tracking system that was also used for the spatial water maze task in other studies (Sun et al., 2002; Sun and Alkon, 2002a). The system tracks the animal's position by recording sequential x/y-coordinates of trigger events (video signal above track level) and calculating the distance, in the pool (sample period: 0.055 s) and adds the distance at pre-set intervals (15 min) during each trial. The tracking system, however, neither distinguishes nor determines the duration of any period of mobility or immobility. To evaluate whether the distance moved, as recorded by the tracking system, reflects the duration of active swimming, the investigator(s) also recorded the duration of active swimming on-line via the video screen monitor for a direct comparison of the two parameters.
Depressive behavior in rats was induced by placing the animals in an open-space swimming apparatus, as described herein, for 15 minutes per trial per day. The animals were subjected to three trials over the course of three days. The animals were divided into three groups: control rats (8); phenylalanine rats (10); and imipramine rats (10). The control rats received a single i.v. dose of saline in the tail vein, 3.5 hours before the second trial. […] Rats in the imipramine group received 3 i.p. doses (10 mg/kg) at 23, 2 and 1 hour before the first, second and third trials, respectively.
Depressive behavior in rats was induced by placing the animals in an open-space swimming apparatus, as described herein, for 15 minutes per trial per day. The animals were subjected to three trials over the course of three days. […] The control rats received a single i.v. dose of saline in the tail vein, 3.5 hours before the second trial.

PKC [1] = settings: cited from earlier work
humans = settings: cited from earlier work
PKCε = target: T1, PKCε (Homo sapiens, UniProt Q02156); settings: cited from earlier work
T1 sequence (Q02156 1-737): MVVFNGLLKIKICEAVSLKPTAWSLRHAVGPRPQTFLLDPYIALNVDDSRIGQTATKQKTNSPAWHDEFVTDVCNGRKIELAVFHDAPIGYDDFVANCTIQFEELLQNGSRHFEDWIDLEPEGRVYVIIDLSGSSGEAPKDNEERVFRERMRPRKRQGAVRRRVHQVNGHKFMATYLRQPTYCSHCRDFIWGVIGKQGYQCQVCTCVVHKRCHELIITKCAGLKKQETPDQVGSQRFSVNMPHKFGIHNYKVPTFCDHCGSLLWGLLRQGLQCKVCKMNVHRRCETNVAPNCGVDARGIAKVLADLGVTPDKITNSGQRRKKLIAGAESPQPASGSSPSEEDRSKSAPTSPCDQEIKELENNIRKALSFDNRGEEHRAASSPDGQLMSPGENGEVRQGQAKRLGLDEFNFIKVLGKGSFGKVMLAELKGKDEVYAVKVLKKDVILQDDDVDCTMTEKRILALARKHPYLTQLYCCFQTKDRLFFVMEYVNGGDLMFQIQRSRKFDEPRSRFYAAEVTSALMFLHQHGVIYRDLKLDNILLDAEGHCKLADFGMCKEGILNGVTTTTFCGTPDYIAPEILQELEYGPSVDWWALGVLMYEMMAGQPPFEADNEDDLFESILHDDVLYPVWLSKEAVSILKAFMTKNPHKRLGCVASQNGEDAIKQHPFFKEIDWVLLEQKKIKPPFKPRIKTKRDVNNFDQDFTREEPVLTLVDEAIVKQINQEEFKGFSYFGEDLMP

PKC [2] = settings: K562 cells; cited from earlier work
[3] = test system: cyclin dependent kinase 2 (Cdk2); settings: at 5 ng/ml; cited from earlier work
[4] = test system: murine leukemias and solid tumors; settings: cited from earlier work
PKC [5] = settings: competes with [3H]phorbol dibutyrate; read-out: Ki for binding; cited from earlier work
[6] = test system: squamous cell carcinoma and melanoma; settings: used topically; cited from earlier work
PKCa = PKCa (Homo sapiens, UniProt P17252); settings: cited from earlier work
NCI 60 cell line screen = settings: cited from earlier work
PKC [7] = settings: cited from earlier work; remark: listed apart in the source
rats = settings: forced swimming test, 15 mg/kg×3 per day i.p., n=5; cited from earlier work
[8] = (−)-enantiomer; cited from earlier work
protein kinase C = settings: (−)-enantiomer; cited from earlier work
[9] = Examples 7-13, present tense, no dose, no data

CC(N)C(=O)OC(C)(C)Cc1ccc(Cl)cc1 (stereo not drawn) [Alaproclate, alaproclate]
duration of active swimming compared with control group (Adult Wistar rats; rats, 10 mg/kg×3 per day): significantly longer | mobility (distance moved) / immobility compared with control group (Adult Wistar rats; rats): effective in reducing the immobility

CCCCCCCC(=O)O[C@H]1/C(=C/C(=O)OC)C[C@H]2C[C@H](CO)OC(=O)C[C@H](O)C[C@@H]3CCC[C@H](C[C@@H]4CCO[C@H](/C=C/C(C)(C)[C@]1(O)O2)O4)O3 [Analog 1]
affinity for PKC (in words) (PKC [1]): highest affinity for PKC | potency relative to bryostatin-1 (PKC [1]): about 100 times | Ki (PKC [1]; read-out: PKC Affin): 0.25 nM

CCC/C=C/C=C/C(=O)O[C@H]1/C(=C/C(=O)OC)C[C@H]2C[C@H]([C@@H](C)O)OC(=O)C[C@H](O)C[C@@H]3C[C@H](OC(C)=O)C(C)(C)[C@](O)(C[C@@H]4C/C(=C/C(=O)OC)C[C@H](/C=C/C(C)(C)[C@]1(O)O2)O4)O3 [Bryostatin 1, bryostatin-1]
difference from imipramine group (10 mg/kg i.p. ×3) (Adult Wistar rats; rats, single i.v. dose 80 μg/kg): No significant difference | immobility compared with control group and imipramine group (Adult Wistar rats; rats, single i.v. dose 80 μg/kg in the tail vein 3.5 hours before the second trial): effective in reducing immobility | main adverse reaction (humans): myalgia

CCCCCC1CC1CC1CC1CCCCCCCC(=O)O (stereo not drawn) [DCP-LA, 2-[(2-pentylcyclopropyl)methyl]cyclopropaneoctanoic acid]
concentration of maximal effect (PKCε; activation of PKCε): 100 nM | isoform selectivity of PKC activation (PKCε): selectively activates PKCε

N[C@@H](Cc1ccccc1)C(=O)O [Effector 2, phenylalanine]
immobility compared with control group and imipramine group (Adult Wistar rats; rats, single i.v. dose in the tail vein 3.5 hours before the second trial): effective in reducing the immobility

N[C@@H](Cc1ccc(O)cc1)C(=O)O [Effector 4, 4-hydroxy phenylalanine]
immobility compared with control group and imipramine group (Adult Wistar rats; [9]): effective in reducing immobility

N[C@@H](Cc1ccc(F)cc1)C(=O)O [Effector 5, 4-fluoro phenylalanine]
immobility compared with control group and imipramine group (Adult Wistar rats; [9]): effective in reducing immobility

c1c[nH]cn1 [Effector 14, Imidazole]
immobility compared with control group and imipramine group (Adult Wistar rats; [9]): effective in reducing immobility

C=C(C)[C@]12C[C@@H](COC(=O)c3ccccc3)[C@@]34OC5(O[C@@H]1[C@@H]3C1O[C@]1(CO)[C@@H](O)[C@@]1(O)[C@H]4[C@@H](C(C)CCCCCC[C@@H]5O)C(C)[C@@H]1OC(=O)c1ccccc1)O2 (stereo partly drawn) [Gnidimacrin]
concentration at which it acts as a PKC activator (PKC [2]): ≈ 3 nM | inhibition of Cdk2 [3]: 100% | concentrations of potent antitumor activity [4]: 0.1 to 1 nM

CC1=C[C@]23C(=O)[C@@H](C=C(COC(=O)c4ccccc4)[C@@H](O)[C@]2(O)[C@H]1OC(=O)c1ccccc1)[C@H]1[C@@H](C[C@H]3C)C1(C)C [Ingenol 3,20-dibenzoate]
Ki (PKC [5]): 240 nM

C/C=C(/C)C(=O)O[C@H]1C(C)=C[C@]23C(=O)[C@@H](C=C(CO)[C@@H](O)[C@]12O)[C@H]1[C@@H](C[C@H]3C)C1(C)C [Ingenol-3-angelate]
antitumor activity [6]: possesses antitumor activity

CC1=CC[C@H](C)C(C)(C)[C@@H]1/C=C/C(C)=C/CC[C@@]1(CO)[C@H](CCCO)/C(=C(/C)C=O)CC[C@]1(C)O [Iripallidal]
Ki (PKCa): 75.6 nM | GI50 (concentration required to inhibit growth by 50%) (NCI 60 cell line screen): from micromolar to nanomolar range

CCCCCCCNS(=O)(=O)c1cccc2c(Cl)cccc12 [SC-10, N-(n-heptyl)-5-chloro-1-naphthalenesulfonamide]
activation of PKC (PKC [7]): activates PKC in a calcium-dependent manner

CCCCCCCC(=O)OC1C(=CC(=O)OC)CC2CC(CO)OC(=O)CC(O)CCOC(C(C)(C)C)CC3CCOC(C=CC(C)(C)C1(O)O2)O3 (stereo not drawn) [bryolog 3]
Ki (PKC [1]; A-ring bryologs, read-out: affinity for PKC): 6.5 nM

CN(C)CCCN1c2ccccc2CCc2ccccc21 [imipramine]
percentages of decreases in the distance moved on the third day (using the decrease of control groups as 100%) (Adult Wistar rats; rats): 49.8±7.6% | immobility % as control (rats): 61.5±6.5%

CC(C)NNC(=O)c1ccncc1 [iproniazid]
percentages of decreases in the distance moved on the third day (using the decrease of control groups as 100%) (Adult Wistar rats; rats): 44.0±7.7% | mobility (distance moved) / immobility compared with control group (Adult Wistar rats; rats): appeared more effective at the dose given than mianserin and imipramine | immobility % as control (rats): 87.6±7.3%

CN1CCN2c3ccccc3Cc3ccccc3C2C1 (stereo not drawn) [mianserin]
percentages of decreases in the distance moved on the third day (using the decrease of control groups as 100%) (Adult Wistar rats; rats): 33.3±6.3% | immobility % as control (rats): 66.5±7.0%

CCCCCCCCc1ccc2c3c(c[nH]c13)C[C@@H](CO)NC(=O)[C@H](C(C)C)N2C [octylindolactam V, Octylindolactam V]
metabolic stability [8]: greater metabolic stability | EC50 (protein kinase C): 29 nM

B1: FGF-18: peptide consisting of 207 amino acids, member of the fibroblast growth factor family (protein, UniProt O76093 28-207, looked up)
Fibroblast growth factor 18: EENVDFRIHVENQTRARDDVSRKQLRLYQLYSRTSGKHIQVLGRRISARGEDGDKYAQLLVETDTFGSQVRIKGKETEFYLCMNRKGKLVGKPDGTSKECVFIEKVLENNYTALMSAKYSGWYVGFTKKGRPRKGPKTRENQQDVHFMKRYPKGQPELQKPFKYTTVTKRSRRIRPTHPA
immobility compared with control group and imipramine group (Adult Wistar rats; [9]): effective in reducing immobility
